Measurements: the supplement of paper PMC10307832

Assays:
Test in all cases: relative viability (nuclei count vs DMSO), 5 days (fraction); higher = more cells survive
[1] = compound: C[As](C)SC[C@H](NC(=O)CC[C@H](N)C(=O)O)C(=O)NCC(=O)O [Darinaparsin] + CC(=O)c1c(C)c2cnc(Nc3ccc(N4CCNCC4)cn3)nc2n(C2CCCC2)c1=O [Palbociclib] (partner 0.5 µM)
Method in brief: (§1)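 After 5 days of treatment, lung cancer cells in 1536-well plates were fixed and stained in a single step (final 0.05% Triton X-100, 1% formaldehyde, 1 ug/ml Hoechst) and their nuclei counted on 4× images. Treatment had been applied by pin tool the day after seeding as one drug alone or as a fixed anchor-drug dose with five library-drug doses (not always all listed) in √10 steps. Relative viability is the nuclei count of treated wells divided by that of vehicle wells, and values are medians of duplicate plates.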

[2] = compound: CC1=C(C=C(C=C1)NC(=O)C2=CC(=CC=C2)C(C)(C)C#N)NC3=CC4=C(C=C3)N=CN(C4=O)C [AZ628] + Cc1cc(Nc2cc(N3CCN(C)CC3)nc(Sc3ccc(NC(=O)C4CC4)cc3)n2)n[nH]1 [Tozasertib] (partner 0.1 µM)
Method in brief: as §1

[3] = compound: C[As](C)SC[C@H](NC(=O)CC[C@H](N)C(=O)O)C(=O)NCC(=O)O [Darinaparsin] + Nc1ncn([C@H]2C[C@H](O)[C@@H](CO)O2)c(=O)n1 [Decitabine] (partner 2 µM)
Method in brief: as §1

[4] = compound: C[As](C)SC[C@H](NC(=O)CC[C@H](N)C(=O)O)C(=O)NCC(=O)O [Darinaparsin] + Cc1nc(NC(=O)N2CCC[C@H]2C(N)=O)sc1-c1ccnc(C(C)(C)C(F)(F)F)c1 [Alpelisib] (partner 2 µM)
Method in brief: as §1

Cell Line: NCI-H661
- relative viability ([1]; first compound 0.08 µM): 0.385
- relative viability ([1]; first compound 0.8 µM): 0.355
- relative viability ([1]; first compound 2.53 µM): 0.442
- relative viability ([1]; first compound 8 µM): 0.404
- relative viability ([2]; first compound 0.08 µM): 0.365
- relative viability ([2]; first compound 0.253 µM): 0.409
- relative viability ([2]; first compound 0.8 µM): 0.365
- relative viability ([2]; first compound 2.53 µM): 0.376
- relative viability ([2]; first compound 8 µM): 0.42
- relative viability ([3]; first compound 0.08 µM): 0.581
- relative viability ([3]; first compound 0.8 µM): 0.528
- relative viability ([3]; first compound 2.53 µM): 0.523
- relative viability ([3]; first compound 8 µM): 0.652
- relative viability ([4]; first compound 0.08 µM): 0.632
- relative viability ([4]; first compound 0.8 µM): 0.692
- relative viability ([4]; first compound 2.53 µM): 0.683
- relative viability ([4]; first compound 8 µM): 0.668

Cell Line: NCI-H1734
- relative viability ([1]; first compound 0.08 µM): 0.35
- relative viability ([1]; first compound 0.8 µM): 0.332
- relative viability ([1]; first compound 2.53 µM): 0.361
- relative viability ([1]; first compound 8 µM): 0.395
- relative viability ([2]; first compound 0.08 µM): 0.258
- relative viability ([2]; first compound 0.253 µM): 0.267
- relative viability ([2]; first compound 0.8 µM): 0.196
- relative viability ([2]; first compound 2.53 µM): 0.243
- relative viability ([2]; first compound 8 µM): 0.197
- relative viability ([3]; first compound 0.08 µM): 0.558
- relative viability ([3]; first compound 0.8 µM): 0.483
- relative viability ([3]; first compound 2.53 µM): 0.504
- relative viability ([3]; first compound 8 µM): 0.529
- relative viability ([4]; first compound 0.08 µM): 0.829
- relative viability ([4]; first compound 0.8 µM): 0.67
- relative viability ([4]; first compound 2.53 µM): 0.669
- relative viability ([4]; first compound 8 µM): 0.766

Cell Line: EKVX
- relative viability ([1]; first compound 0.08 µM): 0.451
- relative viability ([1]; first compound 0.8 µM): 0.365
- relative viability ([1]; first compound 2.53 µM): 0.366
- relative viability ([1]; first compound 8 µM): 0.38
- relative viability ([2]; first compound 0.08 µM): 0.396
- relative viability ([2]; first compound 0.253 µM): 0.381
- relative viability ([2]; first compound 0.8 µM): 0.392
- relative viability ([2]; first compound 2.53 µM): 0.467
- relative viability ([2]; first compound 8 µM): 0.233
- relative viability ([3]; first compound 0.08 µM): 0.339
- relative viability ([3]; first compound 0.8 µM): 0.323
- relative viability ([3]; first compound 2.53 µM): 0.382
- relative viability ([3]; first compound 8 µM): 0.314
- relative viability ([4]; first compound 0.08 µM): 0.943
- relative viability ([4]; first compound 0.8 µM): 0.844
- relative viability ([4]; first compound 2.53 µM): 0.857
- relative viability ([4]; first compound 8 µM): 1.1

Cell Line: NCI-H1355
- relative viability ([1]; first compound 0.08 µM): 0.445
- relative viability ([1]; first compound 0.8 µM): 0.398
- relative viability ([1]; first compound 2.53 µM): 0.322
- relative viability ([1]; first compound 8 µM): 0.387
- relative viability ([2]; first compound 0.08 µM): 0.548
- relative viability ([2]; first compound 0.253 µM): 0.512
- relative viability ([2]; first compound 0.8 µM): 0.628
- relative viability ([2]; first compound 2.53 µM): 0.495
- relative viability ([2]; first compound 8 µM): 0.269
- relative viability ([3]; first compound 0.08 µM): 0.38
- relative viability ([3]; first compound 0.8 µM): 0.357
- relative viability ([3]; first compound 2.53 µM): 0.304
- relative viability ([3]; first compound 8 µM): 0.369
- relative viability ([4]; first compound 0.08 µM): 0.955
- relative viability ([4]; first compound 0.8 µM): 0.8
- relative viability ([4]; first compound 2.53 µM): 0.785
- relative viability ([4]; first compound 8 µM): 0.92

Cell Line: H3255
- relative viability ([1]; first compound 0.08 µM): 0.303
- relative viability ([1]; first compound 0.8 µM): 0.313
- relative viability ([1]; first compound 2.53 µM): 0.329
- relative viability ([1]; first compound 8 µM): 0.294
- relative viability ([2]; first compound 0.08 µM): 0.863
- relative viability ([2]; first compound 0.253 µM): 0.613
- relative viability ([2]; first compound 0.8 µM): 0.915
- relative viability ([2]; first compound 2.53 µM): 0.62
- relative viability ([2]; first compound 8 µM): 0.487
- relative viability ([3]; first compound 0.08 µM): 0.634
- relative viability ([3]; first compound 0.8 µM): 0.587
- relative viability ([3]; first compound 2.53 µM): 0.662
- relative viability ([3]; first compound 8 µM): 0.674
- relative viability ([4]; first compound 0.08 µM): 0.761
- relative viability ([4]; first compound 0.8 µM): 0.626
- relative viability ([4]; first compound 2.53 µM): 0.636
- relative viability ([4]; first compound 8 µM): 0.792

Cell Line: NCI-H23
- relative viability ([1]; first compound 0.08 µM): 0.549
- relative viability ([1]; first compound 0.8 µM): 0.52
- relative viability ([1]; first compound 2.53 µM): 0.51
- relative viability ([1]; first compound 8 µM): 0.479
- relative viability ([2]; first compound 0.08 µM): 0.286
- relative viability ([2]; first compound 0.253 µM): 0.263
- relative viability ([2]; first compound 0.8 µM): 0.323
- relative viability ([2]; first compound 2.53 µM): 0.26
- relative viability ([2]; first compound 8 µM): 0.213
- relative viability ([3]; first compound 0.08 µM): 0.341
- relative viability ([3]; first compound 0.8 µM): 0.292
- relative viability ([3]; first compound 2.53 µM): 0.35
- relative viability ([3]; first compound 8 µM): 0.311
- relative viability ([4]; first compound 0.08 µM): 0.926
- relative viability ([4]; first compound 0.8 µM): 0.582
- relative viability ([4]; first compound 2.53 µM): 0.711
- relative viability ([4]; first compound 8 µM): 0.681

Cell Line: NCI-H1755
- relative viability ([1]; first compound 0.08 µM): 0.483
- relative viability ([1]; first compound 0.8 µM): 0.457
- relative viability ([1]; first compound 2.53 µM): 0.46
- relative viability ([1]; first compound 8 µM): 0.469
- relative viability ([2]; first compound 0.08 µM): 0.595
- relative viability ([2]; first compound 0.253 µM): 0.52
- relative viability ([2]; first compound 0.8 µM): 0.532
- relative viability ([2]; first compound 2.53 µM): 0.525
- relative viability ([2]; first compound 8 µM): 0.493
- relative viability ([3]; first compound 0.08 µM): 0.748
- relative viability ([3]; first compound 0.8 µM): 0.801
- relative viability ([3]; first compound 2.53 µM): 0.714
- relative viability ([3]; first compound 8 µM): 0.784
- relative viability ([4]; first compound 0.08 µM): 1.26
- relative viability ([4]; first compound 0.8 µM): 0.896
- relative viability ([4]; first compound 2.53 µM): 0.892
- relative viability ([4]; first compound 8 µM): 1.28

Cell Line: NCI-H650
- relative viability ([1]; first compound 0.08 µM): 0.325
- relative viability ([1]; first compound 0.8 µM): 0.331
- relative viability ([1]; first compound 2.53 µM): 0.339
- relative viability ([1]; first compound 8 µM): 0.322
- relative viability ([2]; first compound 0.08 µM): 0.855
- relative viability ([2]; first compound 0.253 µM): 0.713
- relative viability ([2]; first compound 0.8 µM): 0.722
- relative viability ([2]; first compound 2.53 µM): 0.789
- relative viability ([2]; first compound 8 µM): 0.446
- relative viability ([3]; first compound 0.08 µM): 0.296
- relative viability ([3]; first compound 0.8 µM): 0.35
- relative viability ([3]; first compound 2.53 µM): 0.333
- relative viability ([3]; first compound 8 µM): 0.338
- relative viability ([4]; first compound 0.08 µM): 1.17
- relative viability ([4]; first compound 0.8 µM): 1.15
- relative viability ([4]; first compound 2.53 µM): 1.27
- relative viability ([4]; first compound 8 µM): 1.31

Cell Line: NCI-H1437
- relative viability ([1]; first compound 0.08 µM): 0.321
- relative viability ([1]; first compound 0.8 µM): 0.307
- relative viability ([1]; first compound 2.53 µM): 0.328
- relative viability ([1]; first compound 8 µM): 0.338
- relative viability ([2]; first compound 0.08 µM): 0.402
- relative viability ([2]; first compound 0.253 µM): 0.408
- relative viability ([2]; first compound 0.8 µM): 0.428
- relative viability ([2]; first compound 2.53 µM): 0.418
- relative viability ([2]; first compound 8 µM): 0.375
- relative viability ([3]; first compound 0.08 µM): 0.653
- relative viability ([3]; first compound 0.8 µM): 0.565
- relative viability ([3]; first compound 2.53 µM): 0.583
- relative viability ([3]; first compound 8 µM): 0.599
- relative viability ([4]; first compound 0.08 µM): 1.17
- relative viability ([4]; first compound 0.8 µM): 0.942
- relative viability ([4]; first compound 2.53 µM): 0.92
- relative viability ([4]; first compound 8 µM): 1.16
